Source: PubChem BioAssay (NCI)
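Five compound concentrations were applied to cells in 96-well plates for 48 hours; endpoints were derived by simple linear interpolation of the resulting dose-response curve. The concentration for 50% growth inhibition is given as GI50. TGI: total growth inhibition.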

Legend:
Test in all cases: NCI tumour cell line growth inhibition, 48 h
[1] = test system: HCT-15 colon
[2] = test system: K-562 leukemia
[3] = test system: RXF 393 renal
[4] = test system: LOX IMVI melanoma
[5] = test system: OVCAR-4 ovarian
[6] = test system: MDA-MB-435
[7] = test system: T-47D breast
[8] = test system: OVCAR-5 ovarian
[9] = test system: HCT-116 colon
[10] = test system: TK-10 renal
[11] = test system: A549 NSCLC
[12] = test system: SK-MEL-2 melanoma
[13] = test system: ACHN renal
[14] = test system: SK-MEL-5 melanoma
[15] = test system: EKVX NSCLC
[16] = test system: NCI-H460 lung
[17] = test system: NCI-H23 lung
[18] = test system: OVCAR-8 ovarian
[19] = test system: SN12C renal
[20] = test system: NCI-H522 lung
[21] = test system: NCI/ADR-RES ovarian
[22] = test system: RPMI-8226 leukemia
[23] = test system: HL-60(TB) leukemia
[24] = test system: UO-31 renal
[25] = test system: SF-539 CNS
[26] = test system: IGROV1 ovarian
[27] = test system: MOLT-4 leukemia
[28] = test system: KM12 colon
[29] = test system: SNB-19 CNS
[30] = test system: PC-3 prostate
[31] = test system: MCF7 breast
[32] = test system: SF-295 CNS
[33] = test system: OVCAR-3 ovarian
[34] = test system: SW-620 colon
[35] = test system: SK-OV-3 ovarian
[36] = test system: DU-145 prostate
[37] = test system: HOP-62 NSCLC
[38] = test system: CCRF-CEM leukemia
[39] = test system: UACC-62 melanoma
[40] = test system: SF-268 CNS
[41] = test system: U251 CNS
[42] = test system: CAKI-1 renal
[43] = test system: 786-0 renal
[44] = test system: NCI-H226 lung
[45] = test system: BT-549 breast
[46] = test system: SK-MEL-28 melanoma
[47] = test system: COLO 205 colon
[48] = test system: HOP-92 NSCLC
[49] = test system: SR leukemia
[50] = test system: HS 578T breast
[51] = test system: MDA-MB-231 breast
[52] = test system: UACC-257 melanoma
[53] = test system: HCC-2998 colon
[54] = test system: M14 melanoma

## CCN(CC)CCn1c(N)c(-c2nc3ccccc3n2C)c2nc(C#N)c(C#N)nc21
[1]
  GI50: 5.9 µM
  TGI: > 27.1 µM
[2]
  GI50: 3.31 µM
  TGI: > 42.2 µM
[3]
  GI50: 1.98 µM
  TGI: 4.46 µM
[4]
  GI50: 0.97 µM
  TGI: 2.62 µM
[5]
  GI50: 1.86 µM
  TGI: 9.91 µM
[6]
  GI50: 6.23 µM
  TGI: > 32.4 µM
[7]
  GI50: 1.68 µM
[8]
  GI50: 3.96 µM
  TGI: 12.7 µM
[9]
  GI50: 1.94 µM
  TGI: > 18.5 µM
[10]
  GI50: 7.16 µM
  TGI: 14.2 µM
[11]
  GI50: 3.2 µM
  TGI: 13.7 µM
[12]
  GI50: 6.28 µM
  TGI: 25.6 µM
[13]
  GI50: 0.696 µM
  TGI: 1.53 µM
[14]
  GI50: 3.04 µM
  TGI: 12.8 µM
[15]
  GI50: 7.1 µM
  TGI: 20.5 µM
[16]
  GI50: 4.58 µM
  TGI: 38.5 µM
[17]
  GI50: 1.7 µM
  TGI: 16.2 µM
[18]
  GI50: 3.43 µM
  TGI: 13.8 µM
[19]
  GI50: 3.09 µM
  TGI: 14.2 µM
[20]
  GI50: 3.72 µM
  TGI: 24.9 µM
[21]
  GI50: 3.1 µM
  TGI: 8.86 µM
[22]
  GI50: 1.97 µM
  TGI: > 12.1 µM
[23]
  GI50: 2.84 µM
  TGI: > 50 µM
[24]
  GI50: 2.06 µM
  TGI: 6.61 µM
[25]
  GI50: 2.8 µM
  TGI: 9.43 µM
[26]
  GI50: 1.3 µM
  TGI: 14.3 µM
[27]
  GI50: 1.81 µM
  TGI: 11.1 µM
[28]
  GI50: 5.65 µM
  TGI: 20.3 µM
[29]
  GI50: 7.3 µM
  TGI: 21.5 µM
[30]
  GI50: 1.8 µM
  TGI: > 19.5 µM
[31]
  GI50: 3.08 µM
  TGI: > 50 µM
[32]
  GI50: 5.62 µM
  TGI: 15.6 µM
[33]
  GI50: 1.52 µM
  TGI: 7.31 µM
[34]
  GI50: 2.59 µM
  TGI: > 21.8 µM
[35]
  GI50: 5.21 µM
  TGI: 14.3 µM
[36]
  GI50: 3.93 µM
  TGI: 13 µM
[37]
  GI50: 2.65 µM
  TGI: 11 µM
[38]
  GI50: 4.25 µM
  TGI: 37.9 µM
[39]
  GI50: 3.44 µM
  TGI: 15 µM
[40]
  GI50: 3.64 µM
  TGI: 22.4 µM
[41]
  GI50: 1.27 µM
  TGI: 4.06 µM
[42]
  GI50: 3.7 µM
  TGI: 11.2 µM
[43]
  GI50: 1.01 µM
  TGI: 2.91 µM
[44]
  GI50: 9.57 µM
  TGI: 39.8 µM
[45]
  GI50: 7.64 µM
  TGI: 18.3 µM
[46]
  GI50: 0.6 µM
  TGI: 3.02 µM
[47]
  GI50: 3.84 µM
  TGI: > 28.1 µM
[48]
  GI50: 2.5 µM
  TGI: 12.1 µM
[49]
  GI50: 12.2 µM
  TGI: > 50 µM
[50]
  GI50: 2.52 µM
  TGI: 11.7 µM
[51]
  GI50: 0.295 µM
  TGI: 1.71 µM
[52]
  GI50: 2.23 µM
  TGI: 10.3 µM
[53]
  GI50: 0.696 µM
  TGI: 1.41 µM
[54]
  GI50: 7.21 µM
  TGI: 30.8 µM
